ChEMBL document CHEMBL4814027, “Synthesis and biological evaluation of naphthoquinone phenacylimidazolium derivatives” (Bioorg Med Chem Lett, 2021)
Activity calls are given as the source filed them. The calls are words filed in the database; no cut-off is given here.

Key:
[1] = system: L929; experiment: Cytotoxicity against mouse L929 cells by MTT assay
[2] = system: A549; experiment: Cytotoxicity against human A549 cells by MTT assay
[3] = system: MCF7; experiment: Induction of apoptosis in human MCF7 cells assessed as early apoptotic cells at 0.02 uM after 48 hrs by Annexin V/PI staining based flow cytometric analysis (reference value: 5.05 %); format: functional
[4] = system: MCF7; experiment: Induction of apoptosis in human MCF7 cells assessed as late apoptotic cells at 0.2 uM after 48 hrs by Annexin V/PI staining based flow cytometric analysis (reference value: 1.23 %); format: functional
[5] = system: MCF7; experiment: Induction of apoptosis in human MCF7 cells assessed as early apoptotic cells at 0.1 uM after 48 hrs by Annexin V/PI staining based flow cytometric analysis (reference value: 5.05 %); format: functional
[6] = Selectivity ratio of IC50 for mouse L929 cells to IC50 for human MCF7 cells; format: toxicity; conditions: L929 cells versus MCF7 cells, read-out: Ratio IC50
[7] = system: MCF7; experiment: Induction of apoptosis in human MCF7 cells assessed as viable cells at 0.02 uM after 48 hrs by Annexin V/PI staining based flow cytometric analysis (reference value: 93.7 %); format: functional; conditions: read-out: Activity
[8] = system: MCF7; experiment: Induction of apoptosis in human MCF7 cells assessed as viable cells at 0.1 uM after 48 hrs by Annexin V/PI staining based flow cytometric analysis (reference value: 93.7 %); format: functional; conditions: read-out: Activity
[9] = Selectivity ratio of IC50 for mouse L929 cells to IC50 for human HeLa cells; format: toxicity; conditions: L929 cells versus HeLa cells, read-out: Ratio IC50
[10] = system: MCF7; experiment: Induction of apoptosis in human MCF7 cells assessed as early apoptotic cells at 0.2 uM after 48 hrs by Annexin V/PI staining based flow cytometric analysis (reference value: 5.05 %); format: functional
[11] = system: MCF7; experiment: Induction of cell cycle arrest in human MCF7 cells assessed as accumulation at G2/M phase at 0.2 uM after 48 hrs by flow cytometric analysis (reference value: 8.7 %); format: functional
[12] = system: MCF7; experiment: Induction of cell cycle arrest in human MCF7 cells assessed as accumulation at G0/G1 phase at 0.2 uM after 48 hrs by flow cytometric analysis (reference value: 66.6 %); format: functional
[13] = system: MCF7; experiment: Induction of apoptosis in human MCF7 cells assessed as inhibition of survivin protein expression at 0.02 to 0.2 uM by Western blotting analysis; format: functional, cell-based; conditions: dose 0.02-0.2 µM
[14] = system: HeLa; experiment: Cytotoxicity against human HeLa cells by MTT assay; format: functional, cell-based
[15] = system: MCF7; experiment: Induction of cell cycle arrest in human MCF7 cells assessed as accumulation at S phase at 0.02 uM after 48 hrs by flow cytometric analysis (reference value: 24.4 %); format: functional
[16] = system: MCF7; experiment: Cytotoxicity against human MCF7 cells by MTT assay; format: functional, cell-based
[17] = system: MCF7; experiment: Induction of apoptosis in human MCF7 cells assessed as necrotic cells at 0.2 uM after 48 hrs by Annexin V/PI staining based flow cytometric analysis (reference value: 0.017 %); format: functional
[18] = Selectivity ratio of IC50 for mouse L929 cells to IC50 for human A549 cells; format: toxicity; conditions: L929 cells versus A549 cells, read-out: Ratio IC50
[19] = system: MCF7; experiment: Induction of apoptosis in human MCF7 cells assessed as necrotic cells at 0.1 uM after 48 hrs by Annexin V/PI staining based flow cytometric analysis (reference value: 0.017 %); format: functional
[20] = system: MCF7; experiment: Induction of apoptosis in human MCF7 cells assessed as viable cells at 0.2 uM after 48 hrs by Annexin V/PI staining based flow cytometric analysis (reference value: 93.7 %); format: functional; conditions: read-out: Activity
[21] = system: MCF7; experiment: Induction of cell cycle arrest in human MCF7 cells assessed as accumulation at G2/M phase at 0.1 uM after 48 hrs by flow cytometric analysis (reference value: 8.7 %); format: functional
[22] = system: MCF7; experiment: Induction of apoptosis in human MCF7 cells assessed as late apoptotic cells at 0.02 uM after 48 hrs by Annexin V/PI staining based flow cytometric analysis (reference value: 1.23 %); format: functional
[23] = system: MCF7; experiment: Induction of cell cycle arrest in human MCF7 cells assessed as accumulation at S phase at 0.1 uM after 48 hrs by flow cytometric analysis (reference value: 24.4 %); format: functional
[24] = system: MCF7; experiment: Induction of apoptosis in human MCF7 cells assessed as increase in cleaved caspase 3 protein expression at 0.02 uM by Western blotting analysis; format: functional, cell-based
[25] = system: MCF7; experiment: Induction of cell cycle arrest in human MCF7 cells assessed as accumulation at S phase at 0.2 uM after 48 hrs by flow cytometric analysis (reference value: 24.4 %); format: functional
[26] = system: MCF7; experiment: Induction of cell cycle arrest in human MCF7 cells assessed as accumulation at G0/G1 phase at 0.02 uM after 48 hrs by flow cytometric analysis (reference value: 66.6 %); format: functional
[27] = system: MCF7; experiment: Induction of cell cycle arrest in human MCF7 cells assessed as accumulation at G2/M phase at 0.02 uM after 48 hrs by flow cytometric analysis (reference value: 8.7 %); format: functional
[28] = system: MCF7; experiment: Induction of apoptosis in human MCF7 cells assessed as late apoptotic cells at 0.1 uM after 48 hrs by Annexin V/PI staining based flow cytometric analysis (reference value: 1.23 %); format: functional
[29] = system: MCF7; experiment: Induction of cell cycle arrest in human MCF7 cells assessed as accumulation at G0/G1 phase at 0.1 uM after 48 hrs by flow cytometric analysis (reference value: 66.6 %); format: functional
[30] = system: MCF7; experiment: Induction of apoptosis in human MCF7 cells assessed as necrotic cells at 0.02 uM after 48 hrs by Annexin V/PI staining based flow cytometric analysis (reference value: 0.017 %); format: functional

CC(C)Cn1c[n+](CC(=O)c2cccs2)c2c1C(=O)c1ccccc1C2=O.[Br-]
IC50 [1]: 12.8 µM | IC50 [2]: 0.21 µM | Activity [3]: 46% | Activity [4]: 7.77% | Activity [5]: 69.2% | selectivity ratio [6]: 256 | viability at 0.02 µM [7]: 47.6% | viability at 0.1 µM [8]: 26% | selectivity ratio [9]: 21.3 | Activity [10]: 83.4% | Activity [11]: 10% | Activity [12]: 46.2% | Activity [13]: Active | IC50 [14]: 0.6 µM | Activity [15]: 30.1% | IC50 [16]: 0.05 µM | Activity [17]: 0.98% | selectivity ratio [18]: 61 | Activity [19]: 0.42% | viability at 0.2 µM [20]: 7.84% | Activity [21]: 11.4% | Activity [22]: 6.12% | Activity [23]: 35.6% | Activity [24]: Active | Activity [25]: 43.7% | Activity [26]: 56.6% | Activity [27]: 13.1% | Activity [28]: 4.44% | Activity [29]: 52.5% | Activity [30]: 0.33%

CC(C)Cn1c[n+](CC(=O)c2ccc(C(F)(F)F)cc2)c2c1C(=O)c1ccccc1C2=O
IC50 [1]: 26.3 µM | IC50 [2]: 7.8 µM | selectivity ratio [6]: 3.46 | selectivity ratio [9]: 2.86 | IC50 [14]: 9.2 µM | IC50 [16]: 7.6 µM | selectivity ratio [18]: 3.37

Cn1c[n+](CC(=O)c2ccc(Cl)cc2)c2c1C(=O)c1ccccc1C2=O
IC50 [1]: 14.2 µM | IC50 [2]: 1 µM | selectivity ratio [6]: 2.9 | selectivity ratio [9]: 2.15 | IC50 [14]: 6.6 µM | IC50 [16]: 4.9 µM | selectivity ratio [18]: 14.2

CC(C)Cn1c[n+](CC(=O)c2ccccc2[N+](=O)[O-])c2c1C(=O)c1ccccc1C2=O
IC50 [1]: 133 µM | IC50 [2]: 35.2 µM | selectivity ratio [6]: 2.4 | selectivity ratio [9]: 1.81 | IC50 [14]: 73.6 µM | IC50 [16]: 55.4 µM | selectivity ratio [18]: 3.78
